This passage reports EC50 results from patent US12357631B2 (priority 2018, dated 2025).

In this assay the target is PB2 (Influenza A virus, UniProt P03428). Nature of the assay: biochemical. The format is binding.

As usually defined, the pEC50 is the EC50 on a negative log10 scale, so that one unit is a factor of ten. Low readings indicate a high EC50, high ones a low EC50.

pEC50: −log10 of the molar value.

Sequence of PB2 (P03428 whole entry, looked up): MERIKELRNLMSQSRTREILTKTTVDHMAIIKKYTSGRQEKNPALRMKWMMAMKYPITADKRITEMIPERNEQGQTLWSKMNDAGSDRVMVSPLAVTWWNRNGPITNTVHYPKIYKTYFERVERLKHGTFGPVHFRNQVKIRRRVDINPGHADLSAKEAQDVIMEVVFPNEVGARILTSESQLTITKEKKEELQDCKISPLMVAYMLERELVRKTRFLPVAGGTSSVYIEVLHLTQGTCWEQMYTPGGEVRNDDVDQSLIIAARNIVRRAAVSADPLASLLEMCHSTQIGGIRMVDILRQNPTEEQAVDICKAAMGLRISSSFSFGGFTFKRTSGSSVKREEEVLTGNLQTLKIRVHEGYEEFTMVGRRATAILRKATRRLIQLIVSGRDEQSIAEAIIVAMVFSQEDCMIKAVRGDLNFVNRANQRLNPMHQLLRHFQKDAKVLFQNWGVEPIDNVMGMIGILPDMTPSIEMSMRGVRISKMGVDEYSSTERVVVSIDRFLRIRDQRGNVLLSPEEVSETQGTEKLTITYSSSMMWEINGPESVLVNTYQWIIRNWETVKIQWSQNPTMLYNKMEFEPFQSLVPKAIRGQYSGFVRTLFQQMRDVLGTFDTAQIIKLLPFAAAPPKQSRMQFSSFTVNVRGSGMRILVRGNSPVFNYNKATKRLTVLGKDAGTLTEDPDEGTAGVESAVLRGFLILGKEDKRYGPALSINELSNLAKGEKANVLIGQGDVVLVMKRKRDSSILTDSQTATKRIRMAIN

As to `O=C(NCc1ccc(F)cc1)OCc1ccnc(C(=O)N[C@@H]2CCC[C@H](Nc3nc(-c4c[nH]c5ncc(F)cc45)ncc3F)C2)c1` [Compound A92], the negative-log EC50 (pEC50) is less than 4.00.

Turning to `O=C(NCc1cccnc1)OCc1ccnc(C(=O)N[C@@H]2CCC[C@H](Nc3nc(-c4c[nH]c5ncc(F)cc45)ncc3F)C2)c1` [Compound A93], the negative-log EC50 (pEC50) was 4.60 to 5.30.

Take `O=C(NCCc1ccccc1)OCc1ccnc(C(=O)N[C@@H]2CCC[C@H](Nc3nc(-c4c[nH]c5ncc(F)cc45)ncc3F)C2)c1` [Compound A94]: the negative logarithm of the EC50 (pEC50) was less than 4.00.

`O=C(N[C@@H]1CCC[C@H](Nc2nc(-c3c[nH]c4ncc(F)cc34)ncc2F)C1)c1cc(COCCCCCOCc2ccc(F)cc2)ccn1` [Compound A95] gave a negative-log EC50 (pEC50) of less than 4.00.

As for `O=C(NCc1ccccn1)OCc1ccnc(C(=O)N[C@H]2CCC[C@@H](Nc3nc(-c4c[nH]c5ncc(F)cc45)ncc3F)C2)c1` [Compound A96], the pEC50 is 4.60 to 5.30.

On to `O=C(NCc1ccc(C(=O)O)cc1)OCc1ccnc(C(=O)N[C@@H]2CCC[C@H](Nc3nc(-c4c[nH]c5ncc(F)cc45)ncc3F)C2)c1` [Compound A97], for which the pEC50 is more than 5.30.

Turning to `O=C(NCc1cccc(C(=O)O)c1)OCc1ccnc(C(=O)N[C@@H]2CCC[C@H](Nc3nc(-c4c[nH]c5ncc(F)cc45)ncc3F)C2)c1` [Compound A98], the pEC50 is more than 5.30.

`O=C(NCC(O)CO)OCc1ccnc(C(=O)N[C@H]2CCC[C@@H](Nc3nc(-c4c[nH]c5ncc(F)cc45)ncc3F)C2)c1` (some centres unmarked) [Compound A99] showed a pEC50 of more than 5.30.

`O=C(NCCc1ccc(Oc2ccccc2)cc1)OCc1ccnc(C(=O)N[C@H]2CCC[C@@H](Nc3nc(-c4c[nH]c5ncc(F)cc45)ncc3F)C2)c1` [Compound A100] had a pEC50 of less than 4.00.

`O=C(NCCc1ccc(F)cc1)OCc1ccnc(C(=O)N[C@H]2CCC[C@@H](Nc3nc(-c4c[nH]c5ncc(F)cc45)ncc3F)C2)c1` [Compound A101] showed a pEC50 of less than 4.00.

On to `O=C(NCc1ccc(Oc2ccccc2)cc1)OCc1ccnc(C(=O)N[C@H]2CCC[C@@H](Nc3nc(-c4c[nH]c5ncc(F)cc45)ncc3F)C2)c1` [Compound A102], for which the pEC50 was less than 4.00.

`O=C(N[C@H]1CCC[C@@H](Nc2nc(-c3c[nH]c4ncc(F)cc34)ncc2F)C1)c1cc(COCCCCCOCc2ccncc2)ccn1` [Compound A103]: the pEC50 was less than 4.00.

Consider `O=C(NCC1CCCO1)OCc1ccnc(C(=O)N[C@H]2CCC[C@@H](Nc3nc(-c4c[nH]c5ncc(F)cc45)ncc3F)C2)c1` (some centres unmarked) [Compound A106], for which the pEC50 is 4.60 to 5.30.

Regarding `O=C(O)CNC(=O)OCc1ccnc(C(=O)N[C@@H]2CCC[C@H](Nc3nc(-c4c[nH]c5ncc(F)cc45)ncc3F)C2)c1` [Compound A107], the pEC50 is more than 5.30.

Molecule `O=C(NCc1ccncc1)OCc1ccnc(C(=O)N[C@H]2CCC[C@@H](Nc3nc(-c4c[nH]c5ncc(F)cc45)ncc3F)C2)c1` [Compound A108] showed a pEC50 of 4.60 to 5.30.

In turn, `O=C(NCCc1cccc(Oc2ccccc2)c1)OCc1ccnc(C(=O)N[C@H]2CCC[C@@H](Nc3nc(-c4c[nH]c5ncc(F)cc45)ncc3F)C2)c1` [Compound A109] had a pEC50 of less than 4.00.

In the case of `O=C(O)CNCCNC(=O)OCc1ccnc(C(=O)N[C@@H]2CCC[C@H](Nc3nc(-c4c[nH]c5ncc(F)cc45)ncc3F)C2)c1` [Compound A110], the negative-log EC50 (pEC50) was 4.60 to 5.30.

Consider `CCNC(=O)CNC(=O)OCc1ccnc(C(=O)N[C@H]2CCC[C@@H](Nc3nc(-c4c[nH]c5ncc(F)cc45)ncc3F)C2)c1` [Compound A111], for which the negative logarithm of the EC50 (pEC50) is 4.60 to 5.30.

Take `CCOc1ccc(CNC(=O)OCc2ccnc(C(=O)N[C@H]3CCC[C@@H](Nc4nc(-c5c[nH]c6ncc(F)cc56)ncc4F)C3)c2)cc1` [Compound A112]: the pEC50 is less than 4.00.

`CCOCCOCc1cc(-c2ccnc(C(=O)N[C@H]3CCC[C@@H](Nc4nc(-c5c[nH]c6ncc(F)cc56)ncc4F)C3)c2)ccc1F` [Compound A113] had a pEC50 of less than 4.00.

In the case of `O=C(NCCOCC(F)(F)F)OCc1ccnc(C(=O)N[C@H]2CCC[C@@H](Nc3nc(-c4c[nH]c5ncc(F)cc45)ncc3F)C2)c1` [Compound A114], the pEC50 was 4.00 to 4.30.

Regarding `O=COCCOCCNC(=O)OCc1ccnc(C(=O)N[C@H]2CCC[C@@H](Nc3nc(-c4c[nH]c5ncc(F)cc45)ncc3F)C2)c1` [Compound A115], the negative logarithm of the EC50 (pEC50) is more than 5.30.

As for `CC(C)NCCNC(=O)OCc1ccnc(C(=O)N[C@H]2CCC[C@@H](Nc3nc(-c4c[nH]c5ncc(F)cc45)ncc3F)C2)c1` [Compound A116], the pEC50 is 4.60 to 5.30.

With `CN1CCC(CNC(=O)OCc2ccnc(C(=O)N[C@H]3CCC[C@@H](Nc4nc(-c5c[nH]c6ncc(F)cc56)ncc4F)C3)c2)CC1` [Compound A117], the pEC50 was 4.60 to 5.30.

For the molecule `O=C(O)COCCNC(=O)OCc1ccnc(C(=O)N[C@@H]2CCC[C@H](Nc3nc(-c4c[nH]c5ncc(F)cc45)ncc3F)C2)c1` [Compound A118], the negative-log EC50 (pEC50) is more than 5.30.

Take `O=C(NCc1cccc(Oc2ccccc2)c1)OCc1ccnc(C(=O)N[C@H]2CCC[C@@H](Nc3nc(-c4c[nH]c5ncc(F)cc45)ncc3F)C2)c1` [Compound A119]: the negative-log EC50 (pEC50) is less than 4.00.

`O=C(NCC1COCCN1)OCc1ccnc(C(=O)N[C@H]2CCC[C@@H](Nc3nc(-c4c[nH]c5ncc(F)cc45)ncc3F)C2)c1` (some centres unmarked) [Compound A120] had a pEC50 of 4.60 to 5.30.

`O=C(NCC(=O)N1CCOCC1)OCc1ccnc(C(=O)N[C@H]2CCC[C@@H](Nc3nc(-c4c[nH]c5ncc(F)cc45)ncc3F)C2)c1` [Compound A121] gave a negative logarithm of the EC50 (pEC50) of 4.60 to 5.30.

In turn, `COc1ccccc1CNC(=O)OCc1ccnc(C(=O)N[C@H]2CCC[C@@H](Nc3nc(-c4c[nH]c5ncc(F)cc45)ncc3F)C2)c1` [Compound A122] had a pEC50 of less than 4.00.

The molecule `Cc1ccccc1CNC(=O)OCc1ccnc(C(=O)N[C@H]2CCC[C@@H](Nc3nc(-c4c[nH]c5ncc(F)cc45)ncc3F)C2)c1` [Compound A123] gave a pEC50 of less than 4.00.

`O=C(NCc1ccccc1F)OCc1ccnc(C(=O)N[C@H]2CCC[C@@H](Nc3nc(-c4c[nH]c5ncc(F)cc45)ncc3F)C2)c1` [Compound A124] had a pEC50 of less than 4.00.

As to `O=C(NCc1cccc(F)c1)OCc1ccnc(C(=O)N[C@H]2CCC[C@@H](Nc3nc(-c4c[nH]c5ncc(F)cc45)ncc3F)C2)c1` [Compound A125], the pEC50 is less than 4.00.

`COc1ccc(CNC(=O)OCc2ccnc(C(=O)N[C@H]3CCC[C@@H](Nc4nc(-c5c[nH]c6ncc(F)cc56)ncc4F)C3)c2)cc1OC` [Compound A126] showed a negative logarithm of the EC50 (pEC50) of less than 4.00.

On to `Cc1cccc(CNC(=O)OCc2ccnc(C(=O)N[C@H]3CCC[C@@H](Nc4nc(-c5c[nH]c6ncc(F)cc56)ncc4F)C3)c2)c1` [Compound A127], for which the negative-log EC50 (pEC50) is less than 4.00.

Regarding `CCC(CC)OCCNC(=O)OCc1ccnc(C(=O)N[C@H]2CCC[C@@H](Nc3nc(-c4c[nH]c5ncc(F)cc45)ncc3F)C2)c1` [Compound A128], the negative-log EC50 (pEC50) was less than 4.00.

Consider `O=C(CNC(=O)OCc1ccnc(C(=O)N[C@H]2CCC[C@@H](Nc3nc(-c4c[nH]c5ncc(F)cc45)ncc3F)C2)c1)Nc1ccccc1C(=O)O` [Compound A129], for which the pEC50 is more than 5.30.

Take `O=C(NCc1ccc2c(c1)OCO2)OCc1ccnc(C(=O)N[C@H]2CCC[C@@H](Nc3nc(-c4c[nH]c5ncc(F)cc45)ncc3F)C2)c1` [Compound A130]: the pEC50 was less than 4.00.

In turn, `CC(NC(=O)OCc1ccnc(C(=O)N[C@H]2CCC[C@@H](Nc3nc(-c4c[nH]c5ncc(F)cc45)ncc3F)C2)c1)c1ccc(F)cc1` (some centres unmarked) [Compound A131] showed a negative logarithm of the EC50 (pEC50) of less than 4.00.

With `CCOc1ccccc1CNC(=O)OCc1ccnc(C(=O)N[C@H]2CCC[C@@H](Nc3nc(-c4c[nH]c5ncc(F)cc45)ncc3F)C2)c1` [Compound A133], the pEC50 was less than 4.00.

`C[C@H](NC(=O)OCc1ccnc(C(=O)N[C@@H]2CCC[C@H](Nc3nc(-c4c[nH]c5ncc(F)cc45)ncc3F)C2)c1)C(=O)O` [Compound A134] gave a pEC50 of more than 5.30.

With `CC(C)[C@H](NC(=O)OCc1ccnc(C(=O)N[C@@H]2CCC[C@H](Nc3nc(-c4c[nH]c5ncc(F)cc45)ncc3F)C2)c1)C(=O)O` [Compound A135], the pEC50 was 4.60 to 5.30.

Take `CC(NC(=O)OCc1ccnc(C(=O)N[C@H]2CCC[C@@H](Nc3nc(-c4c[nH]c5ncc(F)cc45)ncc3F)C2)c1)c1ccccn1` (some centres unmarked) [Compound A136]: the pEC50 is 4.60 to 5.30.

With `Cc1ccc(CNC(=O)OCc2ccnc(C(=O)N[C@H]3CCC[C@@H](Nc4nc(-c5c[nH]c6ncc(F)cc56)ncc4F)C3)c2)cc1` [Compound A138], the pEC50 was less than 4.00.

The molecule `CCOc1ccc(CNC(=O)OC(C)c2ccnc(C(=O)N[C@H]3CCC[C@@H](Nc4nc(-c5c[nH]c6ncc(F)cc56)ncc4F)C3)c2)cc1` (some centres unmarked) [Compound A139] had a pEC50 of less than 4.00.

In turn, `C[C@@H](NC(=O)OCc1ccnc(C(=O)N[C@@H]2CCC[C@H](Nc3nc(-c4c[nH]c5ncc(F)cc45)ncc3F)C2)c1)C(=O)O` [Compound A141] gave a pEC50 of more than 5.30.

Molecule `CC(C)[C@@H](NC(=O)OCc1ccnc(C(=O)N[C@@H]2CCC[C@H](Nc3nc(-c4c[nH]c5ncc(F)cc45)ncc3F)C2)c1)C(=O)O` [Compound A142] had a pEC50 of more than 5.30.

Molecule `CC(NC(=O)OCc1ccnc(C(=O)N[C@H]2CCC[C@@H](Nc3nc(-c4c[nH]c5ncc(F)cc45)ncc3F)C2)c1)c1ccccc1F` (some centres unmarked) [Compound A143] had a negative-log EC50 (pEC50) of less than 4.00.

`CCOc1ccc(C(C)NC(=O)OCc2ccnc(C(=O)N[C@H]3CCC[C@@H](Nc4nc(-c5c[nH]c6ncc(F)cc56)ncc4F)C3)c2)cc1` (some centres unmarked) [Compound A145]: the pEC50 is less than 4.00.

In turn, `CCOc1ccc(CNC(=O)OCc2cc(C(=O)N[C@H]3CCC[C@@H](Nc4nc(-c5c[nH]c6ncc(F)cc56)ncc4F)C3)ncc2F)cc1` [Compound A147] gave a pEC50 of less than 4.00.

`CCNC(=O)C(NC(=O)OCc1ccnc(C(=O)N[C@H]2CCC[C@@H](Nc3nc(-c4c[nH]c5ncc(F)cc45)ncc3F)C2)c1)C(C)(C)C` (some centres unmarked) [Compound A148] showed a pEC50 of 4.00 to 4.30.

With `CCNC(=O)C(NC(=O)OCc1ccnc(C(=O)N[C@H]2CCC[C@@H](Nc3nc(-c4c[nH]c5ncc(F)cc45)ncc3F)C2)c1)C(C)(C)C` (some centres unmarked) [Compound A149], the pEC50 is less than 4.00.

In the case of `O=C(NCCOCCOCCOCCO)N[C@@H]1CCC[C@H](Nc2nc(-c3c[nH]c4ncc(F)cc34)ncc2F)C1` [Compound A166], the pEC50 was 4.60 to 5.30.

For `CCOCCOCCOCCNC(=O)N[C@@H]1CCC[C@H](Nc2nc(-c3c[nH]c4ncc(F)cc34)ncc2F)C1` [Compound A167], the negative-log EC50 (pEC50) is less than 4.00.
